In PubChem BioAssay (NCI):
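Compound exposure: 48 hours, 5 concentrations, 96-well plates. GI50 = concentration required for 50% inhibition of growth. TGI denotes the concentration required for complete inhibition of growth.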

Tests used:
Assay in all cases: NCI-60 cell line screen, 48 h
[1] = tested on: COLO 205 colon
[2] = tested on: U251 CNS
[3] = tested on: SF-539 CNS
[4] = tested on: SK-MEL-28 melanoma
[5] = tested on: OVCAR-5 ovarian
[6] = tested on: ACHN renal
[7] = tested on: A498 renal
[8] = tested on: EKVX NSCLC
[9] = tested on: HCT-15 colon
[10] = tested on: OVCAR-8 ovarian

Compound | GI50 [1] [µM] | TGI [1] [µM] | GI50 [2] [µM] | TGI [2] [µM] | GI50 [3] [µM] | TGI [3] [µM] | GI50 [4] [µM] | TGI [4] [µM] | GI50 [5] [µM] | TGI [5] [µM] | GI50 [6] [µM] | TGI [6] [µM] | GI50 [7] [µM] | TGI [7] [µM] | GI50 [8] [µM] | TGI [8] [µM] | GI50 [9] [µM] | TGI [9] [µM] | GI50 [10] [µM] | TGI [10] [µM]
O=C(c1cccc(O)c1O)c1cn(Cc2ccc(F)cc2)c2cccc(O)c12 | 2.77 | 10.7 | 2.95 | 15.2 | 2.49 | 11.2 | 6.01 | 19.5 | 9.04 | 26.4 | 3.2 | 14.9 | 12.9 | 25.6 | 9.3 | > 54.4 | 1.16 | 14.8 | 3.56 | 18.9
CCN(CC)c1ccc(C(=N)c2ccc(N(CC)CC)cc2)cc1 | 0.361 | 1.32 | 0.542 | 2.16 | 0.83 | 2.43 | 0.916 | 2.81 | 1.53 | 6.07 | 0.784 | 6.43 | 0.575 | 2.38 | 0.868 | 11.8 | 0.416 | 2.28 | 0.905 | 3.75
CC(C)=CCC/C(=C/CC/C(C)=C/CCc1ccoc1)C(=O)O |  | > 100 |  | > 100 |  | > 100 |  | > 100 |  | > 100 |  | > 100 |  | > 100 |  | > 100 |  | > 100 |  | > 100
CCCCCCCCCCCCCC1CCC(CC)N1 (stereo not given) |  | 28.9 |  | 18 |  | 32.1 |  | 18.6 |  | 30.3 |  | 17.4 |  | 36.7 |  | 31.4 |  | 16.5 |  | 39.1
Cc1ccc(N(C(=O)CC(=O)NN)C(=O)c2ccccc2Cl)cc1 |  | > 100 |  | > 100 |  | > 100 |  | > 100 |  | > 100 |  | > 100 |  | > 100 |  | > 100 |  | > 100 |  | > 100
Fc1cc(F)c(COc2cc(Cn3cnc4c(Cl)nc(Cl)nc43)ccc2C23CC4CC(CC(C4)C2)C3)cc1F | 17.8 | 39.1 | 16.8 | 30.4 | 17.9 | 32.3 | 18.2 | 37.4 | 19.9 | 37.4 | 17.1 | 30.8 | 99.2 | > 100 | 23.3 | 50.8 | 16 | 31.9 | 18 | 38.4
Cc1ccc(/C(=C/C=C(C#N)C#N)Sc2ccc(Cl)cc2)cc1 | 7.58 | 30.4 | 3.65 | 14.8 | 2.66 | 5.45 | 10.6 | 46.8 | 11.4 | 25.5 | 4.62 | 36.9 | 19.4 | 34.8 | 22.3 | 49.4 | 4.12 | 23.1 | 11.4 | 32.4
COc1cc2oc(-c3ccc(O)cc3)cc(=O)c2c(OC)c1OC |  | > 100 |  | > 100 |  | > 100 |  | > 100 |  | > 100 |  | > 100 |  | > 100 |  | > 100 |  | > 100 |  | > 100
CN(C)c1ccc(N)cc1 | 1.97 | 4.54 | 3.36 | 13.2 | 10.3 | 25.5 | 7.81 | 22.3 | 13.5 | 42.6 | 4.38 | 18 | 7.02 | 50.7 | 3.32 | 26.4 | 6.66 | 38.5 | 3.24 | 19.7
CCOC(=O)c1c(CN2CCN(c3ccccc3)CC2)n(-c2ccccc2)c2cc(Br)c(O)cc12 | 21.3 | 41.7 | 6.43 | 19 | 15.5 | 34.9 | 16.6 | 42.1 | 9.98 | 44.8 | 8.39 | 21.9 | 12.7 | 26.8 | 11.2 | 36.1 | 11.3 | 38.6 | 9.32 | 57
CC/C=C\C[C@@H]1C/C=C2/C(=O)C=C[C@H]2C/C=C\CCCC(=O)O1 | 0.284 | 1.05 | 0.365 | 1.51 | 0.533 | 2.97 | 0.424 | 1.85 | 1.51 | 3.78 | 0.183 | 0.372 | 1.81 | 3.3 | 1.1 | 2.44 | 0.242 | 0.865 | 0.342 | 2.37
